The clearance is a measure of how efficiently the substance is removed, as volume per time. High values mean efficient removal, low ones inefficient removal. The IC50 is the concentration that gives 50% inhibition. A low value points to greater potency in that assay. By logD is commonly meant lipophilicity at a set pH, counting ionised and neutral species. A higher logD goes with higher lipophilicity. By efflux ratio is commonly meant a quotient of directional permeabilities that is used to spot active efflux.

Data set [1] is described as follows: Clearance in rat at 1 mg/kg, iv by LC-MS/MS analysis. The following applies: in vivo. In kind it is ADME, organism-based.
The nature of data set [2]: Unbound clearance in rat at 1 mg/kg, iv by LC-MS/MS analysis. In kind it is ADME, organism-based. To be noted: in vivo.
A short description of data set [3]: Unbound brain-to-plasma concentration ratio in iv dosed rat measured at 4 to 24 hrs by LC-MS/MS analysis. In kind it is ADME, organism-based. To be noted: brain and plasma, time 4-24 hrs, read-out: K(p,uu,brain).
The target in data set [4] is T1, Voltage-gated inwardly rectifying potassium channel KCNH2 (Homo sapiens, UniProt Q12809). Kind of data set: Inhibition of hERG by patch clamp method. It counts as toxicity. (hERG is a cardiac potassium channel; its block is linked to QT prolongation.)
T1 sequence (Q12809 whole entry): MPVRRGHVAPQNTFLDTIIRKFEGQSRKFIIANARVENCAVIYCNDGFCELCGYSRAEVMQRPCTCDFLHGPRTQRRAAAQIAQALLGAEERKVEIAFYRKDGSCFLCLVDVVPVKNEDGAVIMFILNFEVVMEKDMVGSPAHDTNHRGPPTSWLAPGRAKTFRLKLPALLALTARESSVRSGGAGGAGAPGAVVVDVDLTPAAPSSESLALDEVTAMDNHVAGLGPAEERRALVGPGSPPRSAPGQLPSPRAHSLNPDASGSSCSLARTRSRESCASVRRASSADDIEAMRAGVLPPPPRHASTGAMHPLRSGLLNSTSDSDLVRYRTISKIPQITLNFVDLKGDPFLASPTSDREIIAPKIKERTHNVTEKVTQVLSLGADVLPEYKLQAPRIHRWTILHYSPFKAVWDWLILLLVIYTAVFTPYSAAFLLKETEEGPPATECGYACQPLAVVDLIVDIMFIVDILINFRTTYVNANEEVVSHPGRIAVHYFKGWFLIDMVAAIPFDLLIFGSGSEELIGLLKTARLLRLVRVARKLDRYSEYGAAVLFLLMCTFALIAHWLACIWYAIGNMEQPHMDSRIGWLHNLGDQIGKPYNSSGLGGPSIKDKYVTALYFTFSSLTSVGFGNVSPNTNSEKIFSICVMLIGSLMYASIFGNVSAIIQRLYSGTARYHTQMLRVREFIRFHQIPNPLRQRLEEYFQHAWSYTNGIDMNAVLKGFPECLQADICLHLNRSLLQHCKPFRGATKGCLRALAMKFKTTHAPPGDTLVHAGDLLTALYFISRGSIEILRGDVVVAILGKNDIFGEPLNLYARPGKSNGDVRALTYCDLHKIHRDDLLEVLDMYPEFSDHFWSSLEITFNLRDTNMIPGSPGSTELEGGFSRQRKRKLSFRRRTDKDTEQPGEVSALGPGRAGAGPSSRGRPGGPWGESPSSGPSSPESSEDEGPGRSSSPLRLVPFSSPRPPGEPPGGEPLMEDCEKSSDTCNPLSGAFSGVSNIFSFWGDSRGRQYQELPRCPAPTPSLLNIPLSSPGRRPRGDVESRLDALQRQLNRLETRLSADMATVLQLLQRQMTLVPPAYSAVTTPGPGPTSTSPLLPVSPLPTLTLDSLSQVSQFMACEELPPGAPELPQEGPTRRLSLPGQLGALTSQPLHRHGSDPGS
The nature of data set [5]: Lipophilicity, logD of compound in n-octanol and aqueous buffer at pH 7.4 by RP-HPLC method. In kind it is physicochemical.
Data set [6] has as its target T2, Interleukin-1 receptor-associated kinase 4 (Homo sapiens, UniProt Q9NWZ3).
T2 sequence (Q9NWZ3 whole entry): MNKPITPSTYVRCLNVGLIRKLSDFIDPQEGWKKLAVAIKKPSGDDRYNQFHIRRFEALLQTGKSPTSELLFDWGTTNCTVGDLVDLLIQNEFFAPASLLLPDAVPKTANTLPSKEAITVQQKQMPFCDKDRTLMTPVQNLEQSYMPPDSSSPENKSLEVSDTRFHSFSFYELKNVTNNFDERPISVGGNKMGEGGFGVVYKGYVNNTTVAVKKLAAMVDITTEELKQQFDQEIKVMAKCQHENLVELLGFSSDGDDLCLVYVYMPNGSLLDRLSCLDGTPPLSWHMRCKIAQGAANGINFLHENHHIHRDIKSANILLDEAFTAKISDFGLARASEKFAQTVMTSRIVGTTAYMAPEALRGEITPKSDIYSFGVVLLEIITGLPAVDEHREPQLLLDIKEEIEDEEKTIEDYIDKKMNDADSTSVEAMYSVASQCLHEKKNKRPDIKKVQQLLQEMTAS

The nature of data set [7]: Metabolic stability in human liver microsomes assessed as intrinsic clearance. In kind it is ADME, Microsome. The following applies: read-out: CLH. (In general: Liver microsomes are vesicles of endoplasmic reticulum, rich in cytochrome P450 enzymes.)
The nature of data set [8]: Metabolic stability in rat liver microsomes assessed as intrinsic clearance. It counts as ADME, Microsome. To be noted: read-out: CLH.
A short description of data set [9]: Metabolic stability in human hepatocytes assessed as intrinsic clearance. In kind it is ADME, cell-based, Hepatocyte. To be noted: read-out: CLH.
The nature of data set [10]: Metabolic stability in rat hepatocytes assessed as intrinsic clearance. It counts as ADME, cell-based, Hepatocyte. The following applies: read-out: CLH.
The subject of the next data set is MDR1 (P-gp). The data set can be described thus: Efflux ratio of apparent permeability across basolateral to apical side over apical to basolateral side in MDCK-MDR1 cells at 1 uM incubated for 120 mins by LC-MS/MS analysis. It counts as ADME, cell-based, Canis lupus familiaris. The following applies: dog.
In data set [11] the target is T1, Voltage-gated inwardly rectifying potassium channel KCNH2. Kind of data set: Displacement of [35S]-MK499 from hERG by […]. It counts as toxicity.

Turning to `CC(C)Oc1cc2nc(C34COC(C)(C3)C4)cn2cc1C(=O)Nc1cnn2cccnc12`, in data set [1], the clearance was found to be 11 mL/min/kg. The CL free in [2] turned out to be 143 mL/min/kg. Also, the Kp uu in data set [3] stood at 0.1. The IC50 in data set [4] was more than 30000 nM. This compound gave a logD in [5] of 2.1.
With `CC(C)Oc1nc2nc(C34COC(C)(C3)C4)cn2cc1C(=O)Nc1cnn2cccnc12`, the clearance in data set [1] was 10 mL/min/kg. Moreover, the CL free in data set [2] stood at 64 mL/min/kg. Further, the Kp uu in data set [3] turned out to be 0.2. Moreover, the values for the IC50 in [4] and in data set [6] were 19700 nM and 0.4 nM, respectively. For the same compound, the pH-dependent lipophilicity (logD) in [5] amounted to 2.1.
On to `CC(C)Oc1cc2nc(C3CCOCC3)cn2cc1C(=O)Nc1cccc(C(F)F)n1`, for which the CLint scaled in [7] amounted to 21 mL/min/kg; in data set [8], 81 mL/min/kg; in [9], 28 mL/min/kg; in data set [10], 29 mL/min/kg. The IC50 in data set [6] amounted to 0.25 nM.
In the case of `CCOc1cc2nc(C3CCOCC3)cn2cc1NC(=O)c1cccc(C(F)F)n1`, the CLint scaled in data set [7] was 27 mL/min/kg; in data set [8], 40 mL/min/kg; in data set [9], 45 mL/min/kg; in [10] it was 63 mL/min/kg. Further, the efflux ratio at 2 h, 1 µM in the data set on MDR1 (P-gp) was determined as 2. Moreover, in data set [1], the clearance was 57 mL/min/kg. In data set [2], this compound showed a CL free of 1738 mL/min/kg. In addition, the Kp uu in data set [3] amounted to 0.3. This compound registered a half-maximal inhibitory concentration (IC50) in [6] of 0.6 nM.
Turning to `Cc1cnc2c(NC(=O)c3cn4cc(C56COC(C)(C5)C6)nc4c(F)c3OC(C)C)cnn2c1`, in data set [1], the clearance turned out to be 2.6 mL/min/kg. The CL free in data set [2] worked out at 28 mL/min/kg. Moreover, the Kp uu in data set [3] is 0.7. In data set [11], this compound showed an IC50 of more than 60000 nM. In data set [5], this compound registered a logD of 2.5.
Turning to `CCOc1cc2nc(CCOC)cn2cc1NC(=O)c1cccc(C(F)F)n1`, the figures for the CLint scaled in data set [7] and in data set [8] were 32 mL/min/kg and 240 mL/min/kg, respectively. The efflux ratio at 2 h, 1 µM in the data set on MDR1 (P-gp) came to 0.5.
As for `CCOc1cc2nc(C(C)(C)O)cn2cc1NC(=O)c1cccc(C(F)F)n1`, the results for the CLint scaled in data set [7] and in data set [8] were less than 4.7 mL/min/kg and less than 10.7 mL/min/kg, respectively. In addition, the efflux ratio at 2 h, 1 µM in the data set on MDR1 (P-gp) came to 5.5.
Turning to `CCOc1cc2nc(C34COC(C)(C3)C4)cn2cc1NC(=O)c1cccc(C(F)F)n1`, the CLint scaled in data set [7] was 5.4 mL/min/kg; in [8] it was less than 11 mL/min/kg; in [9], 19 mL/min/kg; in data set [10], 11 mL/min/kg. In addition, the efflux ratio at 2 h, 1 µM in the data set with MDR1 (P-gp) was found to be 1.4. The same compound showed a clearance in [1] of 37 mL/min/kg. This compound also came in with a CL free in data set [2] of 1388 mL/min/kg. In addition, in [3], the Kp uu was 0.4. Moreover, the values for the half-maximal inhibitory concentration (IC50) in data set [4] and in [6] were 780 nM and 0.2 nM, respectively.
`CC(C)Oc1cc2nc(C3CCOCC3)cn2cc1NC(=O)c1cccc(C(F)F)n1`: the CLint scaled in [7] was found to be 30 mL/min/kg; in [8], 61 mL/min/kg; in [9], 75 mL/min/kg; in [10], 37 mL/min/kg. In data set [1], this compound came in with a clearance of 22 mL/min/kg. The CL free in [2] stood at 1788 mL/min/kg. Also, the Kp uu in [3] was found to be 0.4. The same compound registered an IC50 in data set [6] of 0.2 nM.
In turn, `CC(C)Oc1nc2nc(C34COC(C)(C3)C4)cn2cc1C(=O)Nc1cnn2ccncc12` yielded an IC50 in data set [6] of 16.3 nM.
On to `CCOc1cc2nc(CCCOC)cn2cc1NC(=O)c1cccc(C(F)F)n1`, for which the values for the CLint scaled in data set [7] and in data set [8] were 55 mL/min/kg and 266 mL/min/kg, respectively. Besides, the efflux ratio at 2 h, 1 µM in the data set with MDR1 (P-gp) came out at 1.1. Also, in [6], inhibition was half-maximal at 1.4 nM (IC50).
With `CCOc1cc2nc(C3CC3)cn2cc1NC(=O)c1cccc(C(F)F)n1`, the CLint scaled in data set [7] was 20 mL/min/kg; in [8], 145 mL/min/kg. The efflux ratio at 2 h, 1 µM in the data set with MDR1 (P-gp) worked out at 0.4.
In turn, `CC(C)Oc1nc2nc(C34COC(C)(C3)C4)cn2cc1C(=O)Nc1cnn2cc(F)cnc12` returned a clearance in data set [1] of 7.2 mL/min/kg. The compound further returned a CL free in data set [2] of 67 mL/min/kg. Moreover, in data set [3], the Kp uu worked out at 0.2. This compound had a concentration for half-maximal inhibition (IC50) in data set [4] of 18000 nM. The logD in data set [5] stood at 2.4.
Consider `COc1cc(NC(=O)c2cccc(C(F)(F)F)n2)cn2cc(C3CCOCC3)nc12`, for which the CLint scaled is less than 5 mL/min/kg in data set [7], 20 mL/min/kg in data set [8], 8 mL/min/kg in data set [9] and less than 3 mL/min/kg in data set [10]. Also, the clearance in [1] was 10 mL/min/kg. In data set [2], this compound gave a CL free of 45 mL/min/kg. The Kp uu in data set [3] worked out at 0.2.
`CCOc1cc2nc(C3(OC)CC3)cn2cc1NC(=O)c1cccc(C(F)F)n1`: the CLint scaled in data set [7] came to 68 mL/min/kg; in data set [8] it was 198 mL/min/kg. Besides, the efflux ratio at 2 h, 1 µM with MDR1 (P-gp) was 0.7.
Regarding `Cc1cc(NC(=O)c2cccc(C(F)F)n2)cn2cc(C3CCOCC3)nc12`, the CLint scaled came to 11 mL/min/kg in data set [7], 26 mL/min/kg in data set [8], 16 mL/min/kg in [9] and 12 mL/min/kg in data set [10]. The clearance in data set [1] amounted to 20 mL/min/kg. Besides, the CL free in data set [2] was 227 mL/min/kg. The Kp uu in [3] was 0.7. Further, inhibition in data set [6] was half-maximal at 130 nM (IC50).
Take `Cc1cc2nc(C3CCOCC3)cn2cc1NC(=O)c1cccc(C(F)F)n1`: the CLint scaled in data set [7] is less than 5 mL/min/kg; in data set [8], 20 mL/min/kg; in [9], 18 mL/min/kg; in data set [10], 36 mL/min/kg. In data set [1], this compound had a clearance of 16 mL/min/kg. The compound also gave a CL free in [2] of 149 mL/min/kg. Also, the Kp uu in data set [3] turned out to be 1. This compound returned an IC50 in data set [6] of 150 nM.

Values taken from ChEMBL document CHEMBL5518220, “The Discovery of 7-Isopropoxy-2-(1-methyl-2-oxabicyclo[2.1.1]hexan-4-yl)-N-(6-methylpyrazolo[1,5-a]pyrimidin-3-yl)imidazo[1,2-a]pyrimidine-6-carboxamide (BIO-7488), a Potent, Selective, and CNS-Penetrant IRAK4 Inhibitor for the Treatment of Ischemic Stroke” (J Med Chem, 2024).
